US10986838B2, “Herbicides” (SYNGENTA PARTICIPATIONS AG, priority 2016, dated 2021)

Assays:
Type in all cases: in vivo
[1] = tested on: Echinochloa crus-galli (ECHCG); assay: Post-emergence herbicidal activity (B2); settings: Test B2a, 1000 g/ha, evaluated after 13 days, 5=total damage to plant, 0=no damage to plant
In short: (§1)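 Plants were grown from seed in standard soil for 8 days in a glasshouse (24/16 °C day/night, 14 h light, 65% humidity), then sprayed with compound formulated in acetone/water (50:50) containing 0.5% Tween 20. Damage was scored after 13 days on a 0–5 scale (5 = total damage).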

[2] = tested on: Alopecurus myosuroides (ALOMY); assay: Post-emergence herbicidal activity (B2); settings: Test B2a, 1000 g/ha, evaluated after 13 days, 5=total damage to plant, 0=no damage to plant
In short: as §1

Avena fatua (AVEFA) [3] = assay: Post-emergence herbicidal activity (B2); settings: Test B2a, 1000 g/ha, evaluated after 13 days, 5=total damage to plant, 0=no damage to plant
In short: as §1

Setaria faberi (SETFA) [4] = assay: Post-emergence herbicidal activity (B2); settings: Test B2a, 1000 g/ha, evaluated after 13 days, 5=total damage to plant, 0=no damage to plant
In short: as §1

Lolium perenne (LOLPE) [5] = assay: Post-emergence herbicidal activity (B2); settings: Test B2a, 1000 g/ha, evaluated after 13 days, 5=total damage to plant, 0=no damage to plant
In short: as §1

[6] = tested on: Triticum aestivium (TRZAW); assay: Post-emergence herbicidal activity (B2); settings: Test B2a, 1000 g/ha, evaluated after 13 days, 5=total damage to plant, 0=no damage to plant
In short: as §1

[7] = tested on: Echinochloa crus-galli (ECHCG); assay: Pre-emergence herbicidal activity (B1); settings: Test 1a, 1000 g/ha, evaluated after 13 days, 5=total damage to plant, 0=no damage to plant
In short: (§2)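 After one day of cultivation, soil pots were treated pre-emergence by spray with active ingredient in acetone/water (50:50) and 0.5% Tween 20. Evaluation at 13 days used a 0–5 scale, where 5 meant total plant damage.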

[8] = tested on: Alopecurus myosuroides (ALOMY); assay: Pre-emergence herbicidal activity (B1); settings: Test 1a, 1000 g/ha, evaluated after 13 days, 5=total damage to plant, 0=no damage to plant
In short: as §2

Avena fatua (AVEFA) [9] = assay: Pre-emergence herbicidal activity (B1); settings: Test 1a, 1000 g/ha, evaluated after 13 days, 5=total damage to plant, 0=no damage to plant
In short: as §2

Setaria faberi (SETFA) [10] = assay: Pre-emergence herbicidal activity (B1); settings: Test 1a, 1000 g/ha, evaluated after 13 days, 5=total damage to plant, 0=no damage to plant
In short: as §2

Lolium perenne (LOLPE) [11] = assay: Pre-emergence herbicidal activity (B1); settings: Test 1a, 1000 g/ha, evaluated after 13 days, 5=total damage to plant, 0=no damage to plant
In short: as §2

[12] = tested on: Triticum aestivium (TRZAW); assay: Pre-emergence herbicidal activity (B1); settings: Test 1a, 1000 g/ha, evaluated after 13 days, 5=total damage to plant, 0=no damage to plant
In short: as §2

Structure (SMILES) | ECHCG damage score [1] | ALOMY damage score [2] | AVEFA damage score (Avena fatua (AVEFA) [3]) | SETFA damage score (Setaria faberi (SETFA) [4]) | LOLPE damage score (Lolium perenne (LOLPE) [5]) | TRAZW damage score [6] | ECHCG damage score [7] | ALOMY damage score [8] | AVEFA damage score (Avena fatua (AVEFA) [9]) | SETFA damage score (Setaria faberi (SETFA) [10]) | LOLPE damage score (Lolium perenne (LOLPE) [11]) | TRAZW damage score [12]
Fc1cncc(-c2ccc(NCC3CCC3)c(C(F)(F)F)n2)c1 [Compound A51, N-(cyclobutylmethyl)-6-(5-fluoro-3-pyridyl)-2-(trifluoromethyl)pyridin-3-amine] | 5 | 1 | 4 | 4 | 3 | 2 | 5 | 1 | 1 | 5 | 1 | 1
CN(C)c1ccc(-c2cncc(F)c2)nc1C(F)(F)F [Compound A38, 6-(5-fluoro-3-pyridyl)-N,N-dimethyl-2-(trifluoromethyl)pyridin-3-amine] | 5 | 1 | 4 | 5 | 2 | 1 | 5 | 0 | 2 | 5 | 0 | 0
